Test results as given in patent US20240368174A1, “Antiviral Heterocyclic Compounds” (Enanta Pharmaceuticals, Inc., priority 2023, published 2024).

Tested on: genotype A, “Long” strain RSV
Assay: RSV-A assay (CPE, ATPlite readout in Hep-2 cells)
Format: cell-based, Human respiratory syncytial virus
Conditions: human respiratory syncytial virus, activity class
Excerpt: Hep-2 cells, (originally derived from tumors grown in irradiated-cortisonised weanling rats that had been injected with epidermoid carcinoma tissue from the larynx of a person, but later found to be indistinguishable from HeLa cells by PCR DNA analysis), were used for the culturing of genotype A, “Long” strain RSV. Flasks were inoculated with RSV and viral stocks were collected once cytopathic effect (CPE) was greater than 90%. Viral stocks in 25% sucrose media were snap frozen using liquid nitrogen to increase viral stability. Viral stock titers were quantified by tissue culture infectious dose 50% (TCID50) using 8,000 cells per well and 3-fold viral dilutions across a 96-well plate, cultured for 4 days. Viral stock titers were also quantified by a plaque forming unit assay, as described elsewhere.
Following extensive parameter testing, the final assay is run as follows: Hep-2 cells are seeded into the inner 60 wells of a 96-well plate at 8,000 cells per well in a volume of 50 μL using Growth Media (DMEM without phenol red, 1% L-Glut, 1% Penn/Strep, 1% nonessential amino acids, 10% heat-inactivated FBS). 2-fold serial dilutions of control and test compounds are added to the wells in duplicate in a total volume of 25 μL. Viral stock is then added to the wells at a multiplicity of infection (MOI) of 0.1 in a volume of 25 μL, bringing the total volume of each well to 100 μL. The MOI is calculated using the PFU/mL, or TCID50 if unavailable. Each 96-well plate has a control column of 6 wells with cells and virus but no compound (negative control, max CPE), a column with cells but no compound or virus (positive control, minimum CPE), and a column with no cells or virus or compound (background plate/reagent control). The control wells with cells but no virus are given an additional 25 μL of growth media containing an equal quantity of sucrose as those wells receiving the viral stock in order to keep consistent in media and volume conditions. The outer wells of the plate are filled with 125 μL of moat media (DMEM, 1% Penn/Strep) to act as a thermal and evaporative moat around the test wells. Following a 5-day incubation period, the plates are read using ATPlite (50 uL added per well), which quantifies the amount of ATP (a measure of cell health) present in each well. Assay plates are read using the Envision luminometer. […] EC50 ranges are as follows: A<0.2 μM; B>0.2 μM.

Compound | EC50
COc1cc(C(=O)NC[C@](O)(c2cc3c(c(-c4ccnc(Cl)c4Cl)n2)OC[C@]3(C)C(N)=O)C2CC2)cc2cn(C3(F)CC3)nc12 [Example 441] | < 0.2 µM
COc1cc(C(=O)NC[C@](O)(c2cc3c(c(-n4ccc5ccccc54)n2)OC[C@]3(C)C(N)=O)C2CC2)cc2cn(C(F)F)nc12 [Example 445] | < 0.2 µM
COc1cc(C(=O)NC[C@](O)(c2cc3c(c(-n4nnc5ccccc54)n2)OC[C@]3(C)C(N)=O)C2CC2)cc2cn(C3CC3)nc12 [Example 450] | < 0.2 µM
COc1cc(C(=O)NC[C@](O)(c2cc3c(c(-n4nc(Cl)c5ccccc54)n2)OC[C@]3(C)C(N)=O)C2CC2)cc2cn(C3CC3)nc12 [Example 451] | < 0.2 µM
COc1cc(C(=O)NC[C@](O)(c2cc3c(c(-n4ccc5c(F)cccc54)n2)OC[C@]3(C)C(N)=O)C2CC2)cc2cn(C3CC3)nc12 [Example 452] | < 0.2 µM
COc1cc(C(=O)NC[C@](O)(c2cc3c(c(-n4ccc5cc(F)ccc54)n2)OC[C@]3(C)C(N)=O)C2CC2)cc2cn(C3CC3)nc12 [Example 453] | < 0.2 µM
COc1cc(C(=O)NC[C@](O)(c2cc3c(c(-n4ccc5ccc(F)cc54)n2)OC[C@]3(C)C(N)=O)C2CC2)cc2cn(C3CC3)nc12 [Example 454] | < 0.2 µM
COc1cc(C(=O)NC[C@](O)(c2cc3c(c(-n4ccc5cccc(F)c54)n2)OC[C@]3(C)C(N)=O)C2CC2)cc2cn(C3CC3)nc12 [Example 455] | < 0.2 µM
COc1cc(C(=O)NC[C@](O)(c2cc3c(c(-c4cc(C(F)(F)F)ncc4F)n2)OC[C@]3(C)C(N)=O)C2(F)CC2)cc2cn(C3CC3)nc12 [Example 458] | < 0.2 µM
COc1cc(C(=O)NC[C@](O)(c2cc3c(c(-c4cc(C(F)(F)F)ncc4F)n2)OC[C@]3(C)C(N)=O)C2(F)CC2)cc2cn(C3(F)CC3)nc12 [Example 459] | < 0.2 µM
COc1cc(C(=O)NC[C@](O)(c2cc3c(c(-c4cc(C(F)(F)F)ncc4F)n2)OC[C@]3(C)C(N)=O)C2(F)CC2)cc2cn(C(F)F)nc12 [Example 460] | < 0.2 µM
COc1cc(C(=O)NC[C@](O)(c2cc3c(c(-c4cc(C(F)(F)F)ncc4F)n2)OC[C@]3(C)C(N)=O)C2(F)CC2)cn2cc(C3CC3)nc12 [Example 461] | < 0.2 µM
COc1cc(C(=O)NC[C@](O)(c2cc3c(c(-c4cc(C(F)(F)F)ncc4F)n2)OC[C@]3(C)C(N)=O)C2(F)CC2)cc2cc(C3CC3)nn12 [Example 462] | < 0.2 µM
COc1cc(C(=O)NC[C@@](O)(c2cc(F)nc(F)c2)c2cc3c(c(-c4cccc(Cl)c4Cl)n2)OC[C@]3(C)C(N)=O)cc2cn(C3CC3)nc12 [Example 575] | < 0.2 µM
COc1cc(C(=O)NC[C@](O)(c2cc3c(c(-c4cccc(F)c4Cl)n2)OC[C@]3(C)C(N)=O)C2CC2)cc2cn(C(F)F)nc12 [Example 614] | < 0.2 µM
COc1cc(C(=O)NC[C@](O)(c2cc3c(c(-c4cccc(F)c4Cl)n2)OC[C@]3(C)C(N)=O)C2CC2)cc2oc(C3CC3)nc12 [Example 616] | < 0.2 µM
COc1cc(C(=O)NC[C@](O)(c2cc3c(c(-c4ccnc(C)c4Cl)n2)OC[C@]3(C)C(N)=O)C2CC2)cn2cc(C3CC3)nc12 [Example 672] | < 0.2 µM
COc1cc(C(=O)NC[C@](O)(c2cc3c(c(-c4ccnc(C)c4Cl)n2)OC[C@]3(C)C(N)=O)C2CC2)cc2cc(C3CC3)nn12 [Example 673] | < 0.2 µM
Cc1nccc(-c2nc([C@@](O)(CNC(=O)c3cc(Cl)c4nn(C5CC5)cc4c3)C3CC3)cc3c2OC[C@]3(C)C(N)=O)c1Cl [Example 674] | < 0.2 µM
COc1cc(C(=O)NC[C@](O)(c2cc3c(c(-c4ccnc(C)c4Cl)n2)OC[C@]3(C)C(N)=O)C2CC2)cc2cc(Cl)c(C)nc12 [Example 675] | < 0.2 µM
C[C@]1(C(N)=O)COc2c1cc([C@@](O)(CNC(=O)c1cc(OCCO)c3nn(C4CC4)cc3c1)C1CC1)nc2-c1ccc(F)c(F)c1Cl [Example 676] | < 0.2 µM
C[C@]1(C(N)=O)COc2c1cc([C@@](O)(CNC(=O)c1cc(OCCO)c3nn(C4CC4)cc3c1)C1CC1)nc2-c1ccc(F)c(Cl)c1Cl [Example 677] | < 0.2 µM
